Experimental data as given in patent US8063018B2, “Bivalent thrombin binding molecules comprising linkers” (National Research Council of Canada, priority 2004, dated 2011).
“And” between values parts separate entries of the source, which are not always exact repeats. Equal entries are not always repeated. Where two headings read alike, the source gives them in different places. Non-standard residues stand in square brackets, D forms with d. Primed or numbered codes have the meaning given here. No end group written: not given here. *: point of attachment. Benzenesulfonyl(4-tBu) = CC(C)(C)c1ccc(S(=O)(=O)*)cc1; dPip′ = not defined here

Experiments:
thrombin [1] = molecular target: T1, thrombin (Homo sapiens, UniProt P00734); assay: Fibrinogen clotting assay catalyzed by thrombin; assay type: biochemical; details: for IC50: IC50, nM (37° C.), 37° C., concentration needed to double the clotting time; for Clotting onset time: 150 nM peptide, 0.6 nM thrombin
thrombin [2] = molecular target: T1, thrombin; assay: Kinetic amidolytic assay with chromogenic substrate S-2238 (inhibition constants); assay type: biochemical
Description: Peptides were freeze-dried and their identity was confirmed by ion-spray mass spectrometry. Clotting assays were carried out by use of the protocols described previously (DiMaio and others, 1990, 21698-21703; Witting and others, 1992, 737-743). The assay employs bovine plasma fibrinogen dissolved at 0.1% in 50 mM Tris-Cl, 100 mM NaCl, 0.1% PEG-8000 at pH 7.6 (i.e. the clotting buffer). Each assay mixture contained a certain concentration of the peptide, and the reaction was started by the addition of human thrombin to a final concentration of 0.6-1.2 nM. Optical absorbance increase at 420 nm caused by fibrin clot formation was measured at 25° C. or 37° C. using the Spectramax plate reader. The onset clotting time was determined as an intersection of the baseline and the extrapolated linear portion of the OD change curve. The concentration of a peptide needed to double the clotting time was defined as IC50 (DiMaio and others, 1990, 21698-21703). Kinetic amidolytic curves were obtained in clotting buffer at 25° C. using eight inhibitor concentrations and three to five concentrations of the chromogenic substrate S-2238 (Chromogenix) (DiMaio and others, 1990, 21698-21703). Inhibition constants were extracted from Lineweaver-Burk equation by using weighted linear regression. Errors in Ki determination were estimated by using Monte-Carlo sampling with 1-3% variance of the experimental points. Peptide concentrations were determined spectrophotometrically using predicted extinction coefficients at 278 nm (Gill and von Hippel, 1989, 319-326).

α-thrombin = α-thrombin (Homo sapiens, UniProt P00734); assay: Effect of calcium on inhibition of the amidolytic activity of thrombin (S-3266); assay type: biochemical; set-up: chromogenic substrate proteolysis by human α-thrombin; details: 50 and 100 mM calcium, 0.6 nM thrombin, 25° C.
thrombin [3] = molecular target: T1, thrombin; details: cited from earlier work
[4] = Calcium binding followed by proton NMR; details: CaCl2 titration, pH 5.5
Description: Looking at the results in FIG. 6, panels a, b, c, d show changes in the proton NMR spectra of Ac-[…]NH2 (SEQ. ID. NO. 109) (P3230, panels a, b) and Ac-[…]NH2 (SEQ. ID. NO. 110) (P3231, panels c, d) upon the addition to the initial ˜450 μL of the corresponding peptide in 20 mM sodium acetate-d3 buffer, pH 5.5, containing 10% D2O, of 1 μL (final CaCl2 concentration ˜0.22 mM), additional 2 μL (final CaCl2 concentration ˜0.66 mM), additional 10 μL (final CaCl2 concentration ˜2.8 mM) of 100 mM CaCl2, and additional 10 μL (final CaCl2 concentration ˜23.9 mM) of 1 M CaCl2. Panels e and f show changes in the proton NMR spectrum of a disulfide-linked peptide Bbs-Arg-(D-Pip)-Gly-Cys . . . […](SEQ. ID. No. 16) upon the addition to the initial volume of ˜450 μL of 1 μL (final CaCl2 concentration ˜0.22 mM), additional 2 μL (final CaCl2 concentration ˜0.66 mM) of 100 mM CaCl2, and additional 10 μL (final CaCl2 concentration ˜22.2 mM) of 1 M CaCl2.
An inhibitor with a linker known to bind specific metal ions will be affected by the presence of these ions in solution. Two peptides homologous to the calcium-binding loop of troponin C were designed and established that they bind calcium ions in solution. The peptides have the following sequences—Ac-[…]NH2 (P3230) (SEQ. ID. NO. 109) and Ac-[…]NH2 (P3231) (SEQ. ID. NO. 110). The peptides were synthesized, purified and their identity was confirmed as described in Example 1. They were tested for calcium binding by use of NMR. For this both freeze-dried peptides were reconstituted at a concentration of approximately 0.5 mM in 20 mM sodium acetate-d3 buffer, pH 5.5, containing 10% D2O. Proton spectra of the peptides were recorded at 800 MHz, 15° C., before and after addition of increasing amounts of 0.1 and 1 M stock solutions of CaCl2 in the same buffer. FIGS. 6a,b,c,d show changes in the proton NMR spectra of these two peptides upon the addition to the initial volume of ˜450 μL of 1 μL (final CaCl2 concentration ˜0.22 mM), additional 2 μL (final CaCl2 concentration ˜0.66 mM), additional 10 μL (final CaCl2 concentration ˜2.8 mM) of 100 mM CaCl2, and additional 10 μL (final CaCl2 concentration ˜23.9 mM) of 1 M CaCl2. The changes in the spectra confirm binding of calcium with affinity in mM range.
One of the two designed peptides was used to construct a calcium-responsive bivalent thrombin inhibitor. The disulfide-linked bivalent thrombin inhibitor (corresponding to SEQ. ID. NO. 91) prepared by cross-oxidation of cysteine thiol groups from two peptides Bbs-Arg-(D-Pip)-Gly-Cys (SEQ. ID. NO. 4) and […](SEQ. ID. NO. 114) (preparation described in Example 1) was tested for its ability to bind calcium and inhibit amidolytic reaction in the presence and absence of calcium. […]

[5] = molecular target: T2, SH2 domain from the Grb4 adaptor protein (Mus musculus, UniProt O55033); details: tyrosine-phosphorylated state; read-out: Affinity for the SH2 domain from Grb4; cited from earlier work
T2 sequence (O55033 285-379 limits assumed): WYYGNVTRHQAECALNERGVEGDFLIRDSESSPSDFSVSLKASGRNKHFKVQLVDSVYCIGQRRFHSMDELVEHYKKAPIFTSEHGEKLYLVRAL

CaCdc42 (R150K) = molecular target: T3, CaCdc42 (R150K) (Candida albicans, UniProt P0CY33, R150K); assay: Fluorescence titration of sNBD-labeled, GMPPCP-loaded CaCdc42 (R150K) with CRIB peptides; assay type: binding
T3 construct: made in house; host or cells: E. coli BL21
Description: In order to construct a bivalent peptide ligand for Candida Cdc42 (CaCdc42) (with a suitable linker) (FIG. 12), the binding affinities of component peptides derived from the CRIB domains of Candida Cla4 and Step 20 were determined. Residue K150 of the R150K CaCdc42 mutant was covalently modified with the fluorescent probe, sNBD (Molecular Probes, Eugene, Oreg.), essentially as described by Nomanbhoy and Cerione (Nomanbhoy, T. and Cerione, R. A., 1999, 15878-15884.). The stoichiometry of the fluorescent probe per protein molecule was estimated at 1.13, based on protein concentration determined with ε280nm=13,610 M^−1 cm^−1 (Gill, S. C. and von Hippel, P. H., 1989, 319-326), and using the absorbance of the sNBD moiety of ε463nm=22,000 M^−1 cm^−1. Interaction of the CRIB peptides with sNBD-labeled CaCdc42 was monitored using extrinsic fluorescence measurements with a Hitachi F-2500 fluorescence spectrophotometer. Samples of sNBD-labeled, activated CaCdc42 were added in the assay buffer (50 mM phosphate, pH 6.8, 50 mM NaCl and 5 mM MgCl2) to a cuvette being continuously stirred. The protein concentration was 1 μM. Individual CRIB peptide dissolved in the same assay buffer was added drop-wise to the cuvette. The mixture was excited at 488 nm with an excitation slit width of 5 nm. The emission spectra were scanned from 510 nm to 590 nm. The fluorescence emission intensity at the emission maximum 545 nm was determined from each spectrum and the final value was obtained by averaging the values from five scans of the same sample. […]
The Kd values for the binding of the CRIB peptides to sNBD-labeled activated CaCdc42 were determined by fitting the fluorescence titration data to a simple bimolecular association model as described by Leonard et al (Leonard, D. A., and others, 1997, 1173-1180). […]
[formula] The fluorescence intensity (F) is related to the dissociation constant, Kd as follows,
[formula] where F0 and Ft are the fluorescence intensities at the starting and end points of the titration, respectively. […] Average Kd values were determined from multiple independent measurements.

T3 sequence (P0CY33 1-178 R150K): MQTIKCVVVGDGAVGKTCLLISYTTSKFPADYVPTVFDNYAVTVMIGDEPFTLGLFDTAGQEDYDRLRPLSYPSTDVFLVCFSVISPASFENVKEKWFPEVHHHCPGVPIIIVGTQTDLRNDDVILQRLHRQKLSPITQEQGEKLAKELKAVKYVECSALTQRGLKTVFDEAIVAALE

## CC[C@H](C)[C@H](NC(=O)[C@H](CCC(=O)O)NC(=O)[C@H](CCC(=O)O)NC(=O)[C@H](Cc1ccccc1)NC(=O)[C@H](CC(=O)O)NC(=O)CNC(=O)[C@H](CO)NC(=O)CNC(=O)[C@H](CO)NC(=O)CNC(=O)[C@H](CO)NC(=O)CNC(=O)[C@H](CO)NC(=O)CNC(=O)[C@H]1CCCCN1C(=O)[C@H](CCCNC(=N)N)NS(=O)(=O)c1ccc(C(C)(C)C)cc1)C(=O)N1CCC[C@H]1C(=O)N[C@@H](CCC(=O)O)C(=O)N[C@@H](CCC(=O)O)C(=O)N[C@@H](Cc1ccc(O)cc1)C(=O)N[C@@H](CC(C)C)C(=O)N[C@@H](CCC(N)=O)C(=O)O [P3150]
Thrombin [1]
  IC50: 0.5 ± 0.1 nM
Thrombin [2]; 25° C., S-2238, clotting buffer, read-out: KI, nM (25° C.)
  Ki: 0.5 ± 0.2 nM
α-thrombin
  Effect of calcium on inhibition potency: no visible effect

## CC[C@H](C)[C@H](NC(=O)[C@H](CC(C)C)NC(=O)[C@H](CCCCN)NC(=O)[C@H](CCC(N)=O)NC(=O)[C@H](CCC(=O)O)NC(=O)CNC(=O)[C@H]1CCCCN1C(=O)[C@H](CCCNC(=N)N)NS(=O)(=O)c1ccc(C(C)(C)C)cc1)C(=O)N[C@@H](CO)C(=O)N[C@@H](CCC(=O)O)C(=O)N[C@@H](CCC(=O)O)C(=O)N[C@@H](CC(=O)O)C(=O)N[C@@H](CC(C)C)C(=O)NCC(=O)N[C@@H](CC(=O)O)C(=O)N[C@@H](Cc1ccccc1)C(=O)N[C@@H](CCC(=O)O)C(=O)N[C@@H](CCC(=O)O)C(=O)N[C@H](C(=O)N1CCC[C@H]1C(=O)N[C@@H](CCC(=O)O)C(=O)N[C@@H](CCC(=O)O)C(=O)N[C@@H](Cc1ccc(O)cc1)C(=O)N[C@@H](CC(C)C)C(=O)N[C@@H](CCC(N)=O)C(=O)O)[C@@H](C)CC [P3182]
Thrombin [1]; 150 nM inhibitor, ~1.2 μM 9E10
  Effect of antibody 9E10 on inhibitory potency: reversed the inhibitory potency
Thrombin [1]; 1.2 μM anti-c-myc antibody 9E10
  Clotting onset time: approximately 230 s
Thrombin [1]; no antibody
  Clotting onset time: approximately 530 s
Thrombin [1]
  IC50: ~25 nM
Thrombin [2]
  Ki: 66 ± 13 nM

## Bbs-Arg-(D-Pip)-Gly ({Benzenesulfonyl(4-tBu)}-Arg-[dPip′]-Gly) [H1]
Thrombin [3]; monovalent moiety alone
  KI of the constituent binding moiety: low μM range

## Bbs-Arg-(D-Pip)-Gly-Cys . . . Cys-Asp-Lys-Asn-Ala-Asp-Gly-Trp-Ile-Asp-Asn-Gly-Asp-Phe-Glu-Glu-Ile-Pro-Glu-Glu-Tyr-Leu-Gln (CDKNADGWIDNGDFEEIPEEYLQ; not fully specified (N-terminus); printed as Bbs-Arg-(D-Pip)-Gly-Cys . . . Cys-Asp-Lys-Asn-Ala-Asp-Gly-Trp-Ile-Asp-Asn-Gly-Asp-Phe-Glu-Glu-Ile-Pro-Glu-Glu-Tyr-Leu-Gln; also: N-terminal part Bbs-Arg-(D-Pip)-Gly-Cys . . . precedes Cys1, intervening residues not given here) [3243-3255]
[4]
  Affinity of calcium binding: mM range
α-thrombin; listed as SEQ. ID. NO. 91
  Effect of calcium on inhibition potency: altered inhibition
α-thrombin; listed as calcium-responsive disulfide-linked bivalent thrombin inhibitor
  Effect of calcium on inhibition potency: decreased

## CPHYEKVSG [ephrinB2301-309, peptide derived from the ephrinB cytoplasmic tail]
[5]
  Kd: 200 nM

## DKNADGWIDNGDFE [P3231]
[4]
  Affinity of calcium binding: mM range

## DKNADGWIDNGDFE [SEQ. ID. NO. 17]
[4]
  Affinity of calcium binding: millimolar range

## DKNADGWIDNGEFE [P3230]
[4]
  Affinity of calcium binding: mM range

## EVNIKISTPFNAKHLAHVGIDDNGNFTGLPDTWKSLLQHSKIT [mCst20-cCla4]
CaCdc42 (R150K)
  Kd: 2640 ± 200 nM

## EVNIKISTPFNAKHLAHVGIDDNGSYTGLPIEWERLLSASGIT [eCst20]
CaCdc42 (R150K)
  Kd: 46 nM

## GGNSGFPGPINFTHKVHVGFDRKSLTIYAQVQKNFTGLPDTWKSLLQHSKIT [eCla4-SLAM, GGNSGFPGPINFTHKVHVGFDRKSLTIYAQVQKNFTGLPDTWKSLLQHSKIT]
CaCdc42 (R150K)
  Kd: 127 ± 70 nM

## WDPRPQRHNDGDFEEIPEEYLQ [SEQ. ID. NO. 18]
Thrombin [3]; subject of another patent application, read-out: KI for thrombin inhibition
  Ki: ~17 nM and 17 nM
